Laboratory results published in EP0297946A2, “Cytochalasin purification methods and compositions” (priority 1987, dated 1989).
Where “and” joins values, the source holds several entries; their conditions need not be identical. Equal entries are not always repeated. Where two headings read alike, the source gives them in different places.

How the values were obtained:
[1] = tested on: P388 murine leukemia cells (drug-resistant line); test: cells; assay type: cell-based; details: Mus musculus
Method: ICs for cytochalasins and antineoplastic agents were determined by inoculating wells containing cultured cells with dilutions of the desired compound, and the resulting exposed cell viability determined at a fixed timepoint after exposure (i.e., 20 or 48 hours). The concentration of the compound that is found to inhibit 50% of the initial cells cultured is the IC50 of that compound with respect to those cells. The IC90 and IC100s can similarly be determined.
Inhibitory concentrations ("ICs") of ADR, CA, and CB on P388 murine leukemia cells (drug-resistant line) were determined as follows.
Cells (5 X 10⁴) were plated out in 200 uL of RPMI 1640 medium containing 10% calf serum. CB, CA, and ADR were added to wells as follows to determine inhibitory concentration as follows: 8 wells were inoculated with dilutions of CB: 0.00 uM CB, 1.00 uM CB, 2.00 uM CB, 4.00 uM CB, 10.00 uM CB, 20.00 uM, 40.00 uM CB, and 80.00 uM CB. […]
All wells were incubated at 37°C, in 5% CO₂ for 3 hours, after which time the plate was centrifuged at 600 X g for 5 minutes, the drug medium removed and replaced with 200 uL of fresh RPMI 1640 medium, containing 10% calf serum, centrifuged again at 600 X g, and cells refed and incubated for 45 hours at 37°C, in 5% CO₂. After the 45 hour incubation, the cells were analyzed for viability using the MTT reduction assay as described in Alley et al.

[2] = short-term exposure of about 2 hours; cited from earlier work
[3] = Maximum tolerated single bolus dose (MTD) of CB by vehicle and route of administration; assay type: in vivo, CD2F₁ mice; details: for MTD: mouse, in vivo
Method: (§1) The maximum tolerated single bolus dose (MTD) of CB (LD₅₋₁₀) was estimated as a function of vehicle and route of administration, in M109 tumor-bearing, B16F10 tumor-bearing, and normal mice (Table 2). Both CD2F₁ and B6D2F₁ mice were tested. […] In tissue distribution studies of CB in vivo, 50 mg/kg (1000 ug/20 g mouse) was injected intraperitoneally and the distribution determined at time intervals thereafter as explained in Example 13. […] It is cleared from the spleen and pancreas by 12 hours, but persists in liver for 72 hours. Some CB is metabolized within the first few minutes after injection, but the remaining 35% persists in liver for up to 72 hours. Sustained release formulations such as liposomes would maintain active CB in tissues.
The vehicles used in the invention may be selected with regard to the intended route of administration and standard pharmaceutical practice. The preparations can be injected parenterally, for example, intra-arterially or intravenously. The preparations may also be administered via oral, subcutaneous, intraperitoneal, or intramuscular routes. For parenteral administration, they can be used, for example, in the form of a sterile pyrogen-free aqueous solution which may contain other solutes.
For example, in the present studies, 0.85% (wt/v) sterile sodium chloride solution, sterile pyrogen-free CM-cellulose (1%)Tween-20 (2%), 10% Intralipid (Cutter Laboratories), or 48% ethanol/sodium chloride (v/v) solution were used as vehicles. Liposomes can alternatively be used as a vehicle. In such cases, the CB can be entrapped by any of the methods known in the art for forming liposomes, mentioned hereinbelow, and administered by any of the above-named routes of administration.
The MTD of CB suspension in pyrogen-free carboxymethyl cellulose(1%)/Tween -20 (2%) was 100 mg/kg SC, 50 mg/kg IP, and 10 mg/kg IV when administered to CD2F₁ mice. In DMSO, the MTD was 25 mg/kg IP, and less than 100 mg/kg SC, and in 33% ethanol, 10 mg/kg IV. At doses of 100 -150 mg/kg CB administered SC in CMC/Tw to CD2F₁ mice that had sustained challenge 24 hr with M109 tumor cells implanted SC, appearance of measurable tumor nodules were delayed by 66%.
The maximum tolerated dose (MTD) of CB (50 mg/kg CB) by intraperitoneal administration was determined by the following procedure. A solution of CB as isolated by Example 2 was obtained by sonication of the CB in DMSO (to make a 25 mg/kg solution of CB) for 2 minutes in an ultrasonic bath at 80-90 Hz power.
The above procedure was repeated for CB in CM-cellulose/Tween 20 (CMC/Tw) vehicle (0.1 ml administered).
The above procedures were repeated for 25 and 100 mg/kg CB in DMSO, and for 100 mg/kg CB in CMC/Tw.
The maximum tolerated dose (MTD) of CB (150 mg/kg, in CMC/Tw) by subcutaneous administration over the peritoneal wall was determined by the procedure of Example 8.
The maximum tolerated dose (MTD) of CB (5 mg/kg) by intravenous administration was determined by the procedure of Example 7. The CB was suspended in 0.1 ml 95% ethanol/0.85% NaCl (1:2 v/v), heated to 37°C and administered via tail vein within 5 minutes of mixing.
The above procedure was repeated using 0.1 ml CM-Cellulose/Tween 20.
The above procedure was repeated using 10, 20, 40, and 50 mg/kg dose of CB with the CM-Cellulose/Tween 20 vehicle, and 10, 20, and 40 mg/kg CB with EtOH/NaCl.

[4] = tested on: Madison 109 (M109) carcinoma; test: Madison 109 carcinoma tumor model in mice treated with a single bolus of CB; assay type: in vivo, CD2F₁ mice
Method: For SC tumors, growth was monitored by calculating tumor weight according to the methods of Johnson et al. (1975, Cancer Chemo. Rep., 59(4):697-705). For IP and IV-induced tumors, growth was determined by host survival. Metastases were determined at necropsy by fixation of the organ in Bouins solution according to standard procedure, and metastatic foci counted under a dissecting microscope (see Table 1).
Madison 109 (M109) carcinoma was maintained in Balb/c and CD2F₁ mice by serial passage of 20% tumor brei (approximately 1X10⁶ total cells) in mice every 12 days according to the techniques of Rose (1981, Cancer Treat. Rep., 65:299-312). The CD2F₁ were implanted with 0.2 ml M109 SC ventrally on the abdomen. Tumor brei were prepared by excising the tumor from the passage mouse, removing any necrotic areas, weighing the tumor, mincing it, and suspending the fragments in 0.1 ml 20% (v/v) penicillin/streptomycin (Gibco) and 0.85% (w/v) sterile sodium chloride solution (total 1.0 ml/g tumor), and dispersed by repeated aspiration and expulsion through a syringe. The suspension was then diluted to 20% with 0.85% sterile sodium chloride and 0.2 ml was injected SC. Viability of the tumor suspension was about 20%, as determined by the standard trypan blue exclusion test.
The above procedure was repeated, administering the M109 tumor brei IV 90.1 ml) through the tail vein, or IP (0.2 ml).
Mice (6) were subcutaneously implanted with 1X10⁵ tumor cells as isolated in Example 4 on Day 0, and drug treatment was given on Day 1. CB (100 mg/kg mouse, or 0.2 ml of 10.0 mg/ml CB, per 20 gm mouse), suspended in CMC/Tw was administered to mice.
Lower tumor weight was detected in all the treated groups as compared to controls, although this difference lessened with advancing stage of tumor growth. […] No effect on reducing tumor metastases in the liver or spleen was detected with SC administration of CB.

B16F10 tumor = test: Dose response against B16F10 tumor in mice, CB given peri-tumorally SC; assay type: in vivo
Method: CB (100 mg/kg) administered peri-tumorally delays the tumor appears from Day 7 to Day 18, when treatment is administered on Day 1.

[5] = tested on: P388 murine leukemia cells (P388/ADR); test: P388/ADR cells in 24-well plates, 3 hours exposure, Coulter counting after 96 hours; assay type: cell-based; details: Mus musculus
Method: P388 murine leukemia cells (P388/ADR) selected for multi-drug resistance to doxorubicin and other natural product anti-tumor agents, provided by the National Institutes of Health, were seeded at 5 X 10⁴ cells/ml in 24-well microtiter plates, 2.0 ml per well, in RPMI 1640 medium with 10% fetal calf serum and 10 uM mercaptoethanol. The cells were allowed to equilibrate and divide overnight at 37°C, in 5% CO₂, then treated in duplicate wells with ADR at 2.5, 5, 10, and 20 uM. Other duplicate wells were treated with CB at 2.5, 5, 7.5, 10, and 20 uM. Duplicate wells also contained the above amounts of ADR and CB, which were added to the cells simultaneously. […] After 3 hours of incubation at 37°C, the cells from each well were transferred to sterile centrifuge tubes, and the wells washed with 2.0 ml of sterile medium to assure full cell transfer. The tubes were centrifuged at 600 x g for 5 minutes, and the drug-medium decanted and discarded. The cells were then resuspended in 2.0 ml of fresh medium and plated into 24-well plates, incubated at 37° C for 96 hours, and cell viability and growth after treatment determined by Coulter counting.

[6] = Tissue distribution of CB in vivo after IP bolus injection, HPLC analysis of tissue extracts; design: species or system mice; details: 50 mg/kg IP single bolus
Method: as §1
Livers of mice treated according to Examples 4, 5 and 6 were homogenized with a Brinkman polytron using 5.0 ml of methanol /g tissue. The homogenate was centrifuged at 5000g for 5 minutes. The supernatant was brought to 80% water using HPLC grade water and passed through Sep-Pak C-18 cartridges that had first been conditioned with 5.0 ml methanol, followed by 10.0 ml of distilled water. The cartridges were dried under vacuum and washed with 3.0 ml hexane (HPLC grade), and the CB recovered with 2.0 ml of EtOAc (HPLC grade). The elutes were evaporated under a stream of nitrogen and dissolved in 250 ul tetrohydrofuran (HPLC grade). Samples were filtered through a 0.45 um nylon syringe filter into a 50 ul sample loop. The samples were analyzed by HPLC, using a regular phase silica column, a solvent system of hexane:tetrahydrofuran (60:40), and analyzed at 230 nm. The lower limit of sensitivity was determined to be 1 ug per total extract since 20% was analyzed with a quantitative limit of 0.2 ug.

[7] = CB on Day 1 or when the nodule was detected

## COc1cccc2c1C(=O)c1c(O)c3c(c(O)c1C2=O)C[C@@](O)(C(=O)CO)C[C@@H]3O[C@H]1C[C@H](N)[C@H](O)[C@H](C)O1 [ADR, doxorubicin, reference compound]
[1]; 3 hours exposure, viability by MTT after 45 hours, read-out: IC50
  IC50: 3.5 µM

## C=C1C(C)C2C(Cc3ccccc3)NC(=O)C23OC(=O)C=CC(O)CCCC(C)CC=CC3C1O (stereo not drawn) [CB, cytochalasin B]
[2]
  non-cytotoxic concentration: up to 100 ug/ml and ≤ 200 uM
[3]; IP administration (Example 8)
  toxicity in DMSO relative to CM-Cellulose/Tween 20: approximately twice as toxic
[3]; SC administration (Example 9)
  toxicity in DMSO relative to CM-Cellulose/Tween 20: approximately twice as toxic
[3]; ip, CB suspension in carboxymethyl cellulose(1%)/Tween-20 (2%), single bolus, CD2F₁ mice
  MTD: 50 mg/kg
[3]; ip, in DMSO
  MTD: 25 mg/kg
[3]; iv, CB suspension in carboxymethyl cellulose(1%)/Tween-20 (2%), single bolus, CD2F₁ mice
  MTD: 10 mg/kg
[3]; iv, in 33% ethanol
  MTD: 10 mg/kg
[3]; sc, CB suspension in carboxymethyl cellulose(1%)/Tween-20 (2%), single bolus, CD2F₁ mice
  MTD: 100 mg/kg
[3]; sc, in DMSO
  MTD: < 100 mg/kg
[3]; single bolus dose
  sensitivity to CB of CD2F₁ as compared to B6D2F₁ mice: Slightly greater sensitivity
[4]; 100 mg/kg CB SC at the time of tumor detection
  lung tumor nodules (metastases) versus vehicle controls: fewer lung tumor nodules
[4]; 100-150 mg/kg CB SC in CMC/Tw, CD2F₁ mice, 24 hr after SC M109 challenge
  delay of appearance of measurable tumor nodules: 66%
[4]; [7]
  animals tumor-free by Day 50: 33%
  median survival time: increased median survival time
[4]; IV tumor challenge, 50 mg/kg CB by the IP route
  cytotoxic effects (life span): no cytotoxic effects were observed
[4]; SC administration of CB
  tumor metastases in the liver or spleen: No effect
[4]; SC peri-tumorally on Day 1 or when a measurable nodule was observed (around Day 6)
  tumor growth rate: significant decrease in tumor growth rate
[4]; SC single bolus 24 hours after tumor challenge or when the tumor appeared (about day 6)
  effect on SC tumor: delay the appearance of measurable tumor nodules, to slow growth rate of the nodule to inhibit invasion, and to extend life span
[1]
  IC50: 35 to 40 µM
B16F10 tumor; CB 100 mg/kg peri-tumorally on Day 1, without treatment Day 7
  day of tumor appearance: 18 days
B16F10 tumor; CB administered subcutaneously
  tumor nodule growth rate: measurable effect
[5]
  IC50: 35 to 40 µM
[6]
  persistence in liver: 72 h
  time by which cleared from the spleen and pancreas: ≤ 12 h
  tissue distribution: appears at the highest levels in liver, spleen, and pancreas
[6]; some CB metabolized within the first few minutes
  remaining CB that persists in liver for up to 72 hours: 35%
